# Data reported in patent US8227616B2, “Cyanopyridine antibacterial agents and methods of use thereof” (Wisconsin Alumni Research Foundation, priority 2006, dated 2012).
# Test system: S. aureus ATCC 10390
# Assay: Agar overlay TTC assay
# Type: cell-based, Staphylococcus aureus
# Conditions: methicillin susceptibility disk 10 μg, agar overlay TTC assay, 18 h
# Excerpt: To take advantage of the spatially-addressed nature of the macroarray format, an agar overlay assay was employed that utilizes TTC (triphenyl tetrazolium chloride) as a visualization agent (FIG. 2[…].; Lu, A. T.; Solas, D. W.; Gore, […].; Coffin, […].; Wang, […].; Look, G. C.; Campbell, […]. Antimicrob. Agents Chemother. 1998, 1447-1453. Unfortunately, during macroarray synthesis the planarity of the support is not fully maintained, and small wrinkles develop in this particular assay. This problem was solved by using an adaptation of the common Western Blot technique to copy the macroarray members from the support to fresh wrinkle-free sheets while maintaining the spatially-addressed nature. This transfer can be completed in 90 seconds and four copies can be made at a time, however to date, it is applicable only for smaller macroarrays (6 cm×6 cm, 16 spots). The full macroarray was easily divided into these dimensions. The copies allowed for replicates to be made, and the original, which cannot be used in the assay, is used to validate the compounds by LCMS. As an added feature, the sensitivity of the assay was tuned by simply changing the amount of agar applied to the array. The copies generated in the assay can also be easily used to screened against multiple organisms. […] This assay format also took advantage of the spatially addressed nature of the arrays (FIG. 2C). […]
structure (smiles),measurement,value
"COc1cccc(OC)c1C(=O)N[C@@H]1C(=O)N2[C@@H]1SC(C)(C)[C@@H]2C(=O)O [methicillin, reference compound]",Zone of inhibition,39 mm
